This is an account of results in PMC6332235, “Phosphonylated Acyclic Guanosine Analogues with the 1,2,3-Triazole Linker” (Molecules, 2015).

Format in all cases: cell-based
Assay [1] has as its system human T-lymphocyte CEM cells. The assay is described as follows: Cytostatic activity: inhibition of proliferation of human T-lymphocyte CEM cells. As to conditions: read-out: IC50 (CEM). As to the method: (§1) The cytotoxicity of the tested compounds toward the uninfected host cells was defined as the minimum cytotoxic concentration (MCC) that causes a microscopically-detectable alteration of normal cell morphology. The 50% cytotoxic concentration (CC50), causing a 50% decrease in cell viability, was determined using a colorimetric 3-(4,5-dimethylthiazol-2-yl)-5-(3-carboxymethoxyphenyl)-2-(4-sulfophenyl)-2H-tetrazolium (MTS) assay system. The cytostatic activity of the tested compounds was defined as the 50% cytostatic inhibitory concentration (IC50), causing a 50% decrease in cell proliferation, and was determined against murine leukemia L1210, human T-lymphocyte CEM and human cervix carcinoma HeLa cells (Table 1).
(§2) All assays were performed in 96-well microtiter plates. To each well were added (5−7.5) × 10^4 tumor cells and a given amount of the test compound. The cells were allowed to proliferate for 48 h (murine leukemia L1210 cells) or 72 h (human lymphocytic CEM and human cervix carcinoma HeLa cells) at 37 °C in a humidified CO2-controlled atmosphere. At the end of the incubation period, the cells were counted in a Coulter counter. The IC50 (50% inhibitory concentration) was defined as the concentration of the compound that inhibited cell proliferation by 50%.

Assay [2] deals with murine leukemia L1210 cells. The assay is described as follows: Cytostatic activity: inhibition of proliferation of murine leukemia L1210 cells. Conditions: read-out: IC50 (L1210). As for the experimental part:
as §1, §2

The test system of assay [3] is human cervix carcinoma HeLa cells. Description: Cytostatic activity: inhibition of proliferation of human cervix carcinoma HeLa cells. Conditions: read-out: IC50 (HeLa). As to the method:
as §1, §2

Like-named read-outs stand apart in the source and are kept apart here.

`CCOP(=O)(CCCCn1cc(Cn2cnc3c(Cl)nc(N)nc32)nn1)OCC` [Compound 17d, Diethyl 4-{4-[(2-amino-6-chloro-9H-purin-9-yl)methyl]-1H-1,2,3-triazol-1-yl}butylphosphonate]: the IC50 (as a rule, the concentration that inhibits the measured activity by half) was above 250 µM in assay [1] (Homo sapiens, CCRF-CEM, 72 h); above 250 µM in assay [2] (Mus musculus, L1210, 48 h); at least 250 µM in assay [3] (Homo sapiens, HeLa, 72 h).
As for `CCOP(=O)(CC(O)Cn1cc(Cn2cnc3c(=O)[nH]c(N)nc32)nn1)OCC` (stereo not drawn) [Compound 16f, Diethyl 3-{4-[(2-amino-6-oxo-1,6-dihydro-9H-purin-9-yl)methyl]-1H-1,2,3-triazol-1-yl}-2-hydroxypropylphosphonate], the IC50 in assay [1] (Homo sapiens, CCRF-CEM, 72 h) was above 250 µM; in assay [2] (Mus musculus, L1210, 48 h), above 250 µM; in assay [3] (Homo sapiens, HeLa, 72 h), 195 ± 78 µM.
Turning to `CCOP(=O)(CCCCn1cc(Cn2cnc3c(=O)[nH]c(N)nc32)nn1)OCC` [Compound 16d, Diethyl 4-{4-[(2-amino-6-oxo-1,6-dihydro-9H-purin-9-yl)methyl]-1H-1,2,3-triazol-1-yl}butylphosphonate], the IC50 was above 250 µM in assay [1] (Homo sapiens, CCRF-CEM, 72 h); above 250 µM in assay [2] (Mus musculus, L1210, 48 h); 148 ± 25 µM in assay [3] (Homo sapiens, HeLa, 72 h).
On to `CCOP(=O)(CCOCCn1cc(Cn2cnc3c(=O)[nH]c(N)nc32)nn1)OCC` [Compound 16i, Diethyl 2-{4-[(2-amino-6-oxo-1,6-dihydro-9H-purin-9-yl)methyl]-1H-1,2,3-triazol-1-yl}ethoxyethyphosphonate], for which the IC50 was above 250 µM in assay [1] (Homo sapiens, CCRF-CEM, 72 h); above 250 µM in assay [2] (Mus musculus, L1210, 48 h); 210 ± 13 µM in assay [3] (Homo sapiens, HeLa, 72 h).
For `CCOP(=O)(CCCn1cc(Cn2cnc3c(=O)[nH]c(N)nc32)nn1)OCC` [Compound 16c, Diethyl 3-{4-[(2-amino-6-oxo-1,6-dihydro-9H-purin-9-yl)methyl]-1H-1,2,3-triazol-1-yl}propylphosphonate], the IC50 in assay [1] (Homo sapiens, CCRF-CEM, 72 h) was above 250 µM; in assay [2] (Mus musculus, L1210, 48 h), above 250 µM; in assay [3] (Homo sapiens, HeLa, 72 h), 138 ± 52 µM.
As to `CCOP(=O)(CCn1cc(Cn2cnc3c(=O)[nH]c(N)nc32)nn1)OCC` [Compound 16b, Diethyl 2-{4-[(2-amino-6-oxo-1,6-dihydro-9H-purin-9-yl)methyl]-1H-1,2,3-triazol-1-yl}ethylphosphonate], the IC50 in assay [1] (Homo sapiens, CCRF-CEM, 72 h) is above 250 µM; in assay [2] (Mus musculus, L1210, 48 h), above 250 µM; in assay [3] (Homo sapiens, HeLa, 72 h) it was above 250 µM.
As to “Diethyl 2-{4-[(2-amino-6-chloro-9H-purin-9-yl)methyl]-1H-1,2,3-triazol-1-yl}-acetamidoethylphosphonate [Compound 17j]”, the IC50 is above 250 µM in assay [1] (human T-lymphocyte CEM cells, 72 h proliferation, Coulter counter); above 250 µM in assay [2] (murine leukemia L1210 cells, 48 h proliferation, Coulter counter); above 250 µM in assay [3] (human cervix carcinoma HeLa cells, 72 h proliferation, Coulter counter).
As for `CCOP(=O)(OCC)C(O)CCn1cc(Cn2cnc3c(Cl)nc(N)nc32)nn1` (stereo not drawn) [Compound 17g, Diethyl 3-{4-[(2-amino-6-chloro-9H-purin-9-yl)methyl]-1H-1,2,3-triazol-1-yl}-1-hydroxypropylphosphonate], the IC50 in assay [1] (Homo sapiens, CCRF-CEM, 72 h) is above 250 µM; in assay [2] (Mus musculus, L1210, 48 h) it was above 250 µM; in assay [3] (Homo sapiens, HeLa, 72 h), above 250 µM.
As to `CCOP(=O)(OCC)C(O)CCn1cc(Cn2cnc3c(=O)[nH]c(N)nc32)nn1` (stereo not drawn) [Compound 16g, Diethyl 3-{4-[(2-amino-6-oxo-1,6-dihydro-9H-purin-9-yl)methyl]-1H-1,2,3-triazol-1-yl}-1-hydroxypropylphosphonate], the IC50 in assay [1] (Homo sapiens, CCRF-CEM, 72 h) is above 250 µM; in assay [2] (Mus musculus, L1210, 48 h) it was above 250 µM; in assay [3] (Homo sapiens, HeLa, 72 h), 185 ± 35 µM.
As to `CCOP(=O)(CCn1cc(Cn2cnc3c(Cl)nc(N)nc32)nn1)OCC` [Compound 17b, Diethyl 2-{4-[(2-amino-6-chloro-9H-purin-9-yl)methyl]-1H-1,2,3-triazol-1-yl}ethylphosphonate], the IC50 is above 250 µM in assay [1] (Homo sapiens, CCRF-CEM, 72 h); at least 250 µM in assay [2] (Mus musculus, L1210, 48 h); 227 ± 32 µM in assay [3] (Homo sapiens, HeLa, 72 h).
Consider `CCOP(=O)(COCCn1cc(Cn2cnc3c(Cl)nc(N)nc32)nn1)OCC` [Compound 17h, Diethyl 2-{4-[(2-amino-6-chloro-9H-purin-9-yl)methyl]-1H-1,2,3-triazol-1-yl}-ethoxymethylphosphonate], for which the IC50 is at least 250 µM in assay [1] (Homo sapiens, CCRF-CEM, 72 h); above 250 µM in assay [2] (Mus musculus, L1210, 48 h); above 250 µM in assay [3] (Homo sapiens, HeLa, 72 h).
